In general, IC50 refers to the concentration at which inhibition is half-maximal. Read a low IC50 as inhibition by little substance. In general, EC50 refers to the midpoint of the concentration-response curve. The low end stands for an effect from little substance, the high end for a need for much substance. Usually solubility stands for the dissolved amount per volume that the medium holds.

Consider 20 compounds from patent US9617251B2, “Indanylaminopyridylcyclopropanecarboxylic acids, pharmaceutical compositions and uses thereof” (BOEHRINGER INGELHEIM INTERNATIONAL GMBH, priority 2015, dated 2017).

SMILES strings stand for the structures. Converted amounts (≈) assume the structure as drawn.

Series [1] addresses T1, cytochrome P450 2C9-isoenzyme (Homo sapiens, UniProt P11712).
T1 construct: from tissue; host or cells: human liver microsomes
Put plainly: Inhibition of CYP-2C9 (hydroxylation of diclofenac, human liver microsomes). It is filed as in vitro ADME. Particulars: CYP-2C9, human liver microsomes, diclofenac 10 μM, 37° C. The method, then: The inhibition of cytochrome P450 2C9-isoenzyme catalyzed hydroxylation of diclofenac by the test compound is assayed at 37° C. with human liver microsomes. All assays are carried out on a robotic system in 96 well plates. The final incubation volume contains TRIS buffer (0.1 M), MgCl2 (5 mM), human liver microsomes (0.1 mg/mL), diclofenac (10 μM) and the test compound at five different concentrations or no compound (high control) in duplicate (e.g., highest concentration 10-50 μM with subsequent serial 1:4 dilutions). Following a short preincubation period, reactions are started with the cofactor (NADPH, 1 mM) and stopped by cooling the incubation down to 8° C. and subsequently by addition of one volume of acetonitrile. An internal standard solution—the stable isotope ^13C6-hydroxydiclofenac—is added after quenching of incubations. Peak area analyte (=metabolite formed) and internal standard is determined by LC-MS/MS. The resulting peak area ratio analyte to internal standard in these incubations is compared to a control activity containing no test compound. Within each of the assay runs, the IC50 of a positive control inhibitor (sulfaphenazole) is determined. Experimental IC50 values are calculated by least square regression according to the following equation: % control activity=(100% control activity/(1+(I/IC50)S))−B with I=inhibitor concentration; S=slope factor; B=background activity (lower plateau of the inhibition curve)
(§1) If the inhibition of the reaction is already >50% at the lowest concentration of the test compound, the IC50 is assigned “<lowest concentration tested” (usually <0.4 μM). If the inhibition of the reaction is still <50% at the highest concentration of the test compound, the IC50 is assigned “>highest concentration tested” (usually >50 μM).

Series [2] has as its target T2, cytochrome P450 2C8-isoenzyme (Homo sapiens, UniProt P10632).
T2 construct: from tissue; host or cells: human liver microsomes
T2 sequence (P10632 1-490): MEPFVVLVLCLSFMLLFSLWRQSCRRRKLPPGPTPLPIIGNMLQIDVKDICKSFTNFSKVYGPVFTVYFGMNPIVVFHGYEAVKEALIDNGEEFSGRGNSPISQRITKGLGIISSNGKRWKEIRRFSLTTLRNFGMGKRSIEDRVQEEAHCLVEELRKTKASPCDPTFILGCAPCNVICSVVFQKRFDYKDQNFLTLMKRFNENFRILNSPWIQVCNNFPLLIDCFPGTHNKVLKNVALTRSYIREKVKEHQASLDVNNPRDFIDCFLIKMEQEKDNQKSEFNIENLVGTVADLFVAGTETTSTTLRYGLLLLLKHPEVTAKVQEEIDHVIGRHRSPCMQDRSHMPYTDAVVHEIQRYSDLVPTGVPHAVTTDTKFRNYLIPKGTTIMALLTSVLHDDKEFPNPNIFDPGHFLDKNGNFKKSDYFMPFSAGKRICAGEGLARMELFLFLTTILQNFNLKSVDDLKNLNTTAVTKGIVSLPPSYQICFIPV
Put plainly: Inhibition of CYP-2C8 (deethylation of amodiaquine, human liver microsomes). In kind it is in vitro ADME. Particulars: CYP-2C8, human liver microsomes, amodiaquine 1 μM, 37° C. The method, then: The inhibition of cytochrome P450 2C8-isoenzyme catalyzed deethylation of amodiaquine by the test compound is assayed at 37° C. with human liver microsomes. All assays are carried out on a robotic system in 96 well plates. The final incubation volume contains TRIS buffer (0.1 M), MgCl2 (5 mM), human liver microsomes (0.05 mg/mL), amodiaquine (1 μM) and the test compound at five different concentrations or no compound (high control) in duplicate (e.g. highest concentration 10-50 μM with subsequent serial 1:4 dilutions). Following a short preincubation period, reactions are started with the cofactor (NADPH, 1 mM) and stopped by cooling the incubation down to 8° C. and subsequently by addition of one volume of acetonitrile. An internal standard solution—the stable isotope d5-desethylamodiaquine—is added after quenching of incubations. Peak area analyte (=metabolite formed) and internal standard is determined by LC-MS/MS. The resulting peak area ratio analyte to internal standard in these incubations is compared to a control activity containing no test compound. Within each of the assay runs, the IC50 of a positive control inhibitor (Montelukast) is determined. Experimental IC50 values are calculated by least square regression according to the following equation: % control activity=(100% control activity/(1+(I/IC50)S))−B with I=inhibitor concentration; S=slope factor; B=background activity (lower plateau of the inhibition curve)
as §1

The next series addresses human GPR40 receptor (Homo sapiens, UniProt O14842). The series is described as follows: IP1 accumulation measurements using the IPOne assay system (1321N1 cells stably expressing human GPR40 receptor). In kind it is cell-based. The following applies: 1321N1 cells expressing human GPR40, 1 h stimulation at 37° C. The method, then: IP1 accumulation measurements using the IPOne assay system—1321N1 cells stably expressing human GPR40 receptor (Euroscreen, Belgium) are seeded 24 h before the assay in white 384-well plates in culture medium containing 10% FCS, 1% Na-Pyruvate and 400 μg/mL G418. IP1 is assayed according to the manufacturer's description (Cisbio Bioassays, France). In brief, the assay is started by substitution of the culture medium by stimulation buffer (Hepes 10 mM, CaCl2 1 mM, MgCl2 0.5 mM, KCl 4.2 mM, NaCl 146 mM, glucose 5.5 mM and LiCl 50 mM, pH 7.4). Cells are stimulated for 1 h at 37° C., 5% CO2 by addition of the compounds that are diluted in stimulation buffer containing LiCl. Assays are stopped by adding HTRF-conjugates (IP1-d2 and Anti-IP1 cryptate Tb) and lysis buffer, provided by the manufacturer. After an incubation time of 1 h at room temperature plates are measured using an EnVision™, Perkin Elmer. The obtained fluorescence ratios at 665/615 […] are then used to calculate the pEC50 values using Assay Explorer 3.3 Software (Accelrys, Inc.) by interpolation using an IP1 reference curve and subsequent sigmoidal curve fitting allowing for a variable hill slope.

A short description of series [3]: Aqueous solubility in buffer vs acetonitrile/water (1/1), LC-UV. The following applies: kinetic from dmso stock, buffer pH 2.2, 24 h shaking, 2.5% DMSO. It is filed as physicochemical. The method, then: The aqueous solubility of the compounds of the invention is determined by comparing the amount dissolved in buffer to the amount in an acetonitrile/water (1/1) solution. Starting from a 10 mM DMSO stock solution aliquots are diluted with acetonitrile/water (1/1) or buffer, respectively. After 24 h of shaking, the solutions are filtrated and analyzed by LC-UV. The amount dissolved in buffer is compared to the amount in the acetonitrile solution.
Solubility is usually being measured from 0.001 to 0.125 mg/mL at a DMSO concentration of 2.5%. If more than 90% of the compound is dissolved in buffer, the value is marked with “>”.

T1 sequence (P11712 whole entry): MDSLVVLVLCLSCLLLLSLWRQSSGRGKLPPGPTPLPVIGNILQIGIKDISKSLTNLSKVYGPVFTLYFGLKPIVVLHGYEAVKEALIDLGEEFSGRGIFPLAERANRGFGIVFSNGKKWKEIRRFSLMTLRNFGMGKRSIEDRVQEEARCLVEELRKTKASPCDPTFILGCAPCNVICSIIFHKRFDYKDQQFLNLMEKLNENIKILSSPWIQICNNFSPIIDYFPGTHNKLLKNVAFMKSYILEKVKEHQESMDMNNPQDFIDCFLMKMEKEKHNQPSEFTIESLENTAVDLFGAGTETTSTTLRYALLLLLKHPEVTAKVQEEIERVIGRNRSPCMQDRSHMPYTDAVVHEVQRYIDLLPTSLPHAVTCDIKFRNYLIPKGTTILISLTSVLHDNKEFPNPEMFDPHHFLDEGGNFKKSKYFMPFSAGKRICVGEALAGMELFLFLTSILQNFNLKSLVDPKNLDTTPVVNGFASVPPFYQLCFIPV
Chain of human GPR40 receptor (O14842 whole entry): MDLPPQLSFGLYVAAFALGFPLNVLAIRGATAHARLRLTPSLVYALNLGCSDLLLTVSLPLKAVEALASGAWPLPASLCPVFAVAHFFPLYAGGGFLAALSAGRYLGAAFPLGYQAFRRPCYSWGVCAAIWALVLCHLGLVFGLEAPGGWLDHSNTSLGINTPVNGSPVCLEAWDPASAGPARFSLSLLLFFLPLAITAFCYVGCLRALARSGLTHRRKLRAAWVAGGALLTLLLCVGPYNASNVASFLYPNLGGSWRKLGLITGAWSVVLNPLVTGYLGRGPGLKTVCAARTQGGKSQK

Consider `Cc1cc(-c2nnn(C)n2)cc(C)c1-c1cccc2c1CC[C@H]2Nc1ccc(C2C[C@@H]2C(=O)O)cn1` (mixture of isomers) [Example 5, trans-2-(6-{(R)-4-[2,6-Dimethyl-4-(2-methyl-2H-tetrazol-5-yl)-phenyl]-indan-1-ylamino}-pyridin-3-yl)-cyclopropanecarboxylic acid], for which the IC50 was 48000 nM in series [1] and 12000 nM in series [2]. The compound also registered an EC50 at human GPR40 receptor of 16 nM.

Take `Cc1cc(OCCC(C)(C)O)cc(C)c1-c1cccc2c1CC[C@H]2Nc1ccc(C2C[C@@H]2C(=O)O)cn1` (mixture of isomers) [Example 6, trans-2-(6-{(R)-4-[4-(3-Hydroxy-3-methyl-butoxy)-2,6-dimethyl-phenyl]-indan-1-ylamino}-pyridin-3-yl)-cyclopropanecarboxylic acid]: the IC50 in series [1] and in series [2] was greater than 50000 nM in each case. A half-maximal effect on human GPR40 receptor (EC50) was put at 19 nM.

For `Cc1cc(-c2nnn(C)n2)cc(C)c1-c1ccc(F)c2c1CC[C@H]2Nc1ccc(C2C[C@@H]2C(=O)O)cn1` (mixture of isomers) [Example 7, trans-2-(6-{(R)-4-[2,6-Dimethyl-4-(2-methyl-2H-tetrazol-5-yl)-phenyl]-7-fluoro-indan-1-ylamino}-pyridin-3-yl)-cyclopropanecarboxylic acid], the figures for the IC50 in series [1] and in series [2] were greater than 50000 nM and 38000 nM, respectively. In addition, at human GPR40 receptor, a half-maximal effect (EC50) was put at 19 nM.

With `Cc1cc(OCCC(C)(C)O)cc(C)c1-c1ccc(F)c2c1CC[C@H]2Nc1ccc(C2C[C@@H]2C(=O)O)cn1` (mixture of isomers) [Example 8, trans-2-(6-{(R)-7-Fluoro-4-[4-(3-hydroxy-3-methyl-butoxy)-2,6-dimethyl-phenyl]-indan-1-ylamino}-pyridin-3-yl)-cyclopropanecarboxylic acid], the IC50 in series [1] and in series [2] was greater than 50000 nM throughout. The compound further had an EC50 on human GPR40 receptor of 16 nM.

As for `Cc1cc(-c2nnn(C)n2)cc(C)c1-c1ccc(F)c2c1CC[C@H]2Nc1ccc([C@H]2C[C@@H]2C(=O)O)cn1` [Example 3, (1S,2S)-2-(6-{(R)-4-[2,6-Dimethyl-4-(2-methyl-2H-tetrazol-5-yl)-phenyl]-7-fluoro-indan-1-ylamino}-pyridin-3-yl)-cyclopropanecarboxylic acid], the figures for the IC50 in series [1] and in series [2] were greater than 50000 nM and 19000 nM, respectively. The solubility at 24 h in series [3] turned out to be 91 µg/mL (≈ 183 µM). This compound showed an EC50 on human GPR40 receptor of 4 nM.

In turn, `Cc1cc(-c2nnn(C)n2)cc(C)c1-c1cccc2c1CC[C@H]2Nc1ccc([C@@H]2C[C@H]2C(=O)O)cn1` [Example 9, (1R,2R)-2-(6-{(R)-4-[2,6-Dimethyl-4-(2-methyl-2H-tetrazol-5-yl)-phenyl]-indan-1-ylamino}-pyridin-3-yl)-cyclopropanecarboxylic acid] came in with an EC50 on human GPR40 receptor of 259 nM.

In turn, `Cc1cc(OCCC(C)(C)O)cc(C)c1-c1cccc2c1CC[C@H]2Nc1ccc([C@@H]2C[C@H]2C(=O)O)cn1` [Example 10, (1R,2R)-2-(6-{(R)-4-[4-(3-Hydroxy-3-methyl-butoxy)-2,6-dimethyl-phenyl]-indan-1-ylamino}-pyridin-3-yl)-cyclopropanecarboxylic acid] displayed an EC50 on human GPR40 receptor of 497 nM.

`Cc1cc(OCCC(C)(C)O)cc(C)c1-c1ccc(F)c2c1CC[C@H]2Nc1ccc([C@@H]2C[C@H]2C(=O)O)cn1` [Example 12, (1R,2R)-2-(6-{(R)-7-Fluoro-4-[4-(3-hydroxy-3-methyl-butoxy)-2,6-dimethyl-phenyl]-indan-1-ylamino}-pyridin-3-yl)-cyclopropanecarboxylic acid] gave an EC50 on human GPR40 receptor of 568 nM.

As for `Cc1cc(OC2CCOCC2)cc(C)c1-c1ccc(F)c2c1CC[C@H]2Nc1ccc([C@H]2C[C@@H]2C(=O)O)cn1` [Example 15], the IC50 in series [1] was greater than 50000 nM; in series [2], 26000 nM. For the same compound, the EC50 at human GPR40 receptor worked out at 18 nM.

As to `Cc1cc(C(=O)O)cc(C)c1-c1ccc(F)c2c1CC[C@H]2Nc1ccc([C@H]2C[C@@H]2C(=O)O)cn1` [Example 40], the IC50 in series [1] and in series [2] was greater than 50000 nM throughout. On human GPR40 receptor, the EC50 stood at 940 nM.

For the compound `Cc1cc(OCC2(O)CCS(=O)(=O)CC2)cc(C)c1-c1ccc(F)c2c1CC[C@H]2Nc1ccc([C@H]2C[C@@H]2C(=O)O)cn1` [Example 64], the half-inhibitory concentration (IC50) in series [1] and in series [2] was greater than 50000 nM throughout. Besides, the EC50 on human GPR40 receptor worked out at 29 nM.

`Cc1cc(OC2CCOCC2)cc(C)c1-c1cccc2c1CC[C@H]2Nc1ccc([C@H]2C[C@@H]2C(=O)O)cn1` [Example 77] yielded an EC50 on human GPR40 receptor of 20 nM. In other words, the double-digit nanomolar range.

`Cc1cc(OCC(C)(C)O)cc(C)c1-c1cccc2c1CC[C@H]2Nc1ccc([C@H]2C[C@@H]2C(=O)O)cn1` [Example 79] had a half-maximal effective concentration (EC50) on human GPR40 receptor of 23 nM.

`Cc1cc(OCC(C)(C)C#N)cc(C)c1-c1cccc2c1CC[C@H]2Nc1ccc([C@H]2C[C@@H]2C(=O)O)cn1` [Example 80]: the EC50 at human GPR40 receptor is 22 nM.

On human GPR40 receptor, `Cc1cc(-c2ccn(C)c(=O)c2)cc(C)c1-c1cccc2c1CC[C@H]2Nc1ccc([C@H]2C[C@@H]2C(=O)O)cn1` [Example 81] displayed an EC50 of 8 nM.

`Cc1cc(-c2ccc(=O)n(C)c2)cc(C)c1-c1cccc2c1CC[C@H]2Nc1ccc([C@H]2C[C@@H]2C(=O)O)cn1` [Example 82] showed an EC50 at human GPR40 receptor of 18 nM.

Regarding `Cc1cc(-c2cc(=O)n(C)cn2)cc(C)c1-c1cccc2c1CC[C@H]2Nc1ccc([C@H]2C[C@@H]2C(=O)O)cn1` [Example 83], the response on human GPR40 receptor was half-maximal at 8 nM (EC50). Against the preceding compound, the EC50 is about 2.2-fold lower.

Compound `COc1cc(F)c(-c2cccc3c2CC[C@H]3Nc2ccc([C@H]3C[C@@H]3C(=O)O)cn2)c(F)c1` [Example 84] displayed an EC50 at human GPR40 receptor of 212 nM.

Regarding `O=C(O)[C@H]1C[C@@H]1c1ccc(N[C@@H]2CCc3c(-c4ccccc4C(F)(F)F)cccc32)nc1` [Example 85], a half-maximal effect on human GPR40 receptor (EC50) was put at 91 nM.

For the compound `Cc1cc(C(=O)N(C)C)cc(C)c1-c1cccc2c1CC[C@H]2Nc1ccc([C@H]2C[C@@H]2C(=O)O)cn1` [Example 86], it took 174 nM to reach a half-maximal effect on human GPR40 receptor (EC50).
